Assays:
[1] = molecular target: T1, β2AR (Homo sapiens, UniProt P07550); test: Bias factor by the operational model, β-arrestin recruitment; type: cell-based
[2] = molecular target: T1, β2AR; test: GloSensor cAMP formation assay; type: cell-based; settings: from cAMP formation and β-arrestin recruitment

T1 sequence (P07550 whole entry): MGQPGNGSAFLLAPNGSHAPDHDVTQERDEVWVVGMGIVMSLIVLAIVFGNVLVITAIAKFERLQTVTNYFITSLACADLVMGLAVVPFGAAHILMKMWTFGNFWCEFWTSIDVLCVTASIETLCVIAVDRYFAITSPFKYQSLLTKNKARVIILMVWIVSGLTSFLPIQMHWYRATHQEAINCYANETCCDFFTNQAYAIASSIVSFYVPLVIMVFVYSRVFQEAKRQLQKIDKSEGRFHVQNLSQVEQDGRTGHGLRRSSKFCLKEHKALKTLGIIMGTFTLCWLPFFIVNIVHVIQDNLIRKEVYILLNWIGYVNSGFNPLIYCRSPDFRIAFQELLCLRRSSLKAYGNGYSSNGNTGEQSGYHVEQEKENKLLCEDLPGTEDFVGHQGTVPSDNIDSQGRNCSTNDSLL

CC(Cc1ccc2c(c1)OCO2)NCC(O)c1ccc(O)c(O)c1 (stereo not drawn) [Compound 12, protokylol]
times more efficacious in β-arrestin recruitment than in G protein-mediated cAMP production ([1]; compared to isoproterenol, the unbiased reference): approximately 10 times
bias factor ([1]; toward β-arrestin, from both Tango and DiscoveRx β-arrestin against Glosensor cAMP data sets, reference isoproterenol): around 1
agonist efficacy class at β2AR [2]: full agonists
